# pEC50: −log10 of the molar value.
# Legend:
# [1] = system: Plasmodium falciparum; experiment: ST_JUDE: Plasmodium falciparum 3D7 EC50 (uM) as measured by SYBR green dye; type: functional, organism-based
# [2] = system: Plasmodium falciparum; experiment: ST_JUDE: Plasmodium falciparum K1 EC50 (uM) as measured by SYBR green dye; type: functional, organism-based
Compound,pEC50 [1],pEC50 [2]
Cc1[nH]c2c(-c3ccc(Cl)cc3)cnn2c(=O)c1Cc1ccccc1,5.16,5.16
CCOc1ccc(N2C(N)=NC(N)=NC2(C)C)cc1,6.62,< 4.82
CCCCCCCCn1ccc(=N)cc1,5.66,5.85
CCCS(=O)(=O)N1CCC(CO)(Cc2ccccc2C(F)(F)F)CC1,5.47,5.65
COc1ccc2c(c1)C(=NN=C(N)N)c1cc(OC)ccc1-2,6.30,5.99
OCCNc1nc(Nc2ccc(Cl)cc2)nc2ccccc12,5.99,5.49
COc1ccccc1/C=C/C(=O)Nc1ccc(Cl)c(C(F)(F)F)c1,< 4.82,< 4.82
O=C(Cc1cccc(F)c1)N1CCC(=O)N(CC2CC2)CC1,< 4.82,< 4.82
CCN(CC)c1ccc(CNC(C)C(O)c2ccccc2)cc1 (stereo not drawn),5.39,6.01
CCc1ccc(NC(=O)C2c3cc(OC)c(OC)cc3C(=O)N(C)C2c2cccs2)cc1 (stereo not drawn),5.45,5.42
CCOC(=O)c1ccc(NC(=O)c2cc([N+](=O)[O-])ccc2NC(=O)CNC2CCN(Cc3ccccc3)CC2)cc1,5.90,5.43
CC(C)c1ccc(CN(Cc2ccco2)C(=O)COc2ccccc2Cl)cc1,5.13,< 4.82
Cc1ccc(CN2c3ccccc3C(O)=C(/C=N/c3ccc4c(c3)N3CCN=C3S4)S2(=O)=O)cc1,5.66,< 4.82
CCN1CCN(CCNC(=O)c2ccc(/C=C3/Sc4ccccc4N(Cc4cccc(Cl)c4)C3=O)cc2)CC1,< 4.82,< 4.82
CCOc1ccccc1C(=O)Nc1cc2c3c(c1)CCN3C(=O)CC2,< 4.82,< 4.82
CC(C)(C)CC(C)(C)c1ccc(O)c(CN2CCN(c3ccccc3)CC2)c1,6.45,6.76
CC(/C=N/NC(=O)c1cc(-c2ccc(OC(C)C)cc2)n[nH]1)=C\c1ccccc1,< 4.82,< 4.82
O=C(c1ccc(C(F)(F)F)cc1)N(Cc1ccc(OCc2ccc(F)cc2)cc1)Cc1cccnc1,< 4.82,< 4.82
Cc1ccc(C(NC(=O)CC(C)C)c2ccc3cccnc3c2O)cc1 (stereo not drawn),< 4.82,< 4.82
COc1ccccc1/C=C/CN1CCC2(CCC(CNC(=O)C3CCOCC3)O2)CC1 (stereo not drawn),< 4.82,< 4.82
O=C(Nc1cccc(Cl)c1)Nc1ccccc1OC(F)(F)C(F)F,5.51,5.88
COc1ccc(CCNC(=S)Nc2ccccc2Cl)cc1,5.31,5.32
CCOC(=O)c1ccccc1NC(=S)N1CCCN(Cc2ccc(NC(C)=O)cc2)CC1,5.78,5.60

Compound,pEC50 [1],pEC50 [2]
c1ccc(CN2CCN(c3nc(N(c4ccccc4)c4ccccc4)nc(-n4ccnc4)n3)CC2)cc1,5.61,5.74
CC(=O)c1cccc(CN2CCN(CC(C)C)C(CCO)C2)c1 (stereo not drawn),< 4.82,< 4.82
CCCc1cc(O)nc(-n2nc(C)cc2NC(=O)c2ccc(C(C)(C)C)cc2)n1,< 4.82,5.06
COc1ccc2nc(N(Cc3cccnc3)C(=O)Cc3ccccc3)sc2c1,5.26,5.43
Cc1ccc(Nc2cc(C)nc(Nc3ccc(NS(=O)(=O)c4cccc(F)c4)cc3)n2)cc1,5.91,< 4.82
COc1ccc(Nc2cc(C)nc(Nc3ccc(NS(=O)(=O)c4cccc(C)c4)cc3)n2)cc1,5.70,< 4.82
Cc1ccc(C)c(C(Nc2ccccn2)c2cc(Cl)c3cccnc3c2O)c1 (stereo not drawn),< 4.82,< 4.82
O=C(NNc1nc2ccc(F)cc2s1)c1ccc(F)cc1,< 4.82,5.15
COc1ccc(C2CC3=NC(C)=C(C(=O)OCC(C)C)C(c4ccc(F)cc4)C3=C(O)C2)cc1 (stereo not drawn),5.57,5.52
Oc1ccc(Nc2nc(-c3ccccc3)c3cc(Br)ccc3n2)cc1,< 4.82,5.52
CCc1ccccc1NC(=O)C1c2ccccc2C(=O)N2CCc3ccccc3C12 (stereo not drawn),6.08,5.93
CCO/C(O)=C1\C(C)=NC2=C(C(=O)CC(C)(C)C2)C1c1ccc(Cl)cc1Cl (stereo not drawn),5.53,5.72
CN1C(=O)C(=Cc2ccc(-c3ccc(O)c(C(=O)O)c3)o2)C(=O)N(C)C1=O,< 4.82,< 4.82
CCc1c(C)nc(-n2nc(C)cc2NC(=O)c2ccccc2I)nc1O,< 4.82,< 4.82
CCCOC(=O)c1ccc(NC(=O)NC2CCCCC2)cc1,< 4.82,< 4.82
CCN(C(=O)c1cc2cc3ccc(OC)cc3nc2o1)c1ccc(F)cc1,< 4.82,< 4.82
CCOc1ccc(N(C(C)=O)C2=C(N3CCCCC3)C(=O)c3ccccc3C2=O)cc1,6.27,< 4.82
CCc1ccc(C2C(C#N)=C(N)N(c3cccc(Cl)c3)C3=C2C(=O)CCC3)s1 (stereo not drawn),< 4.82,< 4.82
CCOC(=O)c1ccc2nc(C)cc(Nc3ccc(N(C)C)cc3)c2c1,5.55,5.42
CCCOc1ccc(Oc2nc(NCC)nc(OC)n2)nn1,5.73,5.37
CCOCCn1c(CN(Cc2ccccc2)Cc2ccccc2)nc2c1c(=O)n(C)c(=O)n2C,< 4.82,< 4.82
CCCCCCCn1c(=N)n(CC(O)COc2ccccc2)c2ccccc21 (stereo not drawn),5.80,5.85
CC(=O)Nc1ccc(S(=O)(=O)Nc2ccc(Nc3nc(C)cc(N4CCCC4)n3)cc2)cc1,6.24,5.46

Compound,pEC50 [1],pEC50 [2]
CCCCOC(=O)c1ccc(Nc2cc(C)nc3ccccc23)cc1,5.47,< 4.82
Cc1cc(NC(=O)CSc2ccc3nnc(-c4ccc(Cl)cc4)n3n2)no1,< 4.82,< 4.82
COc1ccc(OC)c2sc(NNC(=O)c3ccc(S(=O)(=O)N(C)C)cc3)nc12,5.17,5.18
COCCn1c(SCC(=O)Nc2cccc(F)c2)nc2c(c1=O)SC(C)C2 (stereo not drawn),< 4.82,< 4.82
COc1ccc(C(=O)CSc2nnc(Cc3cc(O)nc(O)n3)n2-c2ccc(Cl)cc2)cc1,< 4.82,< 4.82
COc1ccc(C2C3=C(O)CC(c4ccccc4)CC3=NC(C)=C2C(=O)OCC(C)C)cc1OC (stereo not drawn),< 4.82,5.41
CCCCOc1ccc(S(=O)(=O)Nc2ccc(Nc3nc(C)cc(N(C)C)n3)cc2)cc1,5.78,< 4.82
N#Cc1ccc(Cn2c(=O)n(CCCC(=O)NCc3ccccc3)c(=O)c3sccc32)cc1,< 4.82,< 4.82
CCOC(=O)C(NC(=O)CC)(Nc1ccc(S(=O)(=O)Nc2cc(C)on2)cc1)C(F)(F)F (stereo not drawn),5.35,5.05
CCOC(=O)c1cnc2ccc(OCC)cc2c1NCCCN1CCOCC1,5.97,5.63
CCCO/C(O)=C1\C(C)=NC2=C(C(=O)CC(c3ccc(Cl)cc3)C2)C1c1cccc(O)c1 (stereo not drawn),5.32,5.35
COc1cccc(Nc2nc(NCC3CCCO3)c3ccccc3n2)c1 (stereo not drawn),5.97,5.77
COc1ccc(C2Sc3ccccc3N=C3C2=C(O)c2ccccc23)cc1 (stereo not drawn),5.76,5.64
CCCOc1ccc(/C=C/c2ccc3cccc(O)c3n2)cc1,< 4.82,< 4.82
COc1ccc(Nc2cc(C)nc(Nc3ccc(NS(=O)(=O)c4ccc(C)cc4)cc3)n2)cc1,6.25,< 4.82
COC(=O)c1c(S(=O)(=O)N2CCCCCC2)sc2c1CCN(Cc1ccc(F)c(OC)c1)C2,< 4.82,< 4.82
CN(C)S(=O)(=O)c1ccc(C(=O)NNc2nc3ccc(F)cc3s2)cc1,5.22,5.37
CC(C)CN1CCC(C(=O)Nc2ccc(-c3nc4ccccc4[nH]3)cc2)CC1,< 4.82,< 4.82
COc1cccc(OCC(=O)NCc2ccccc2)c1,< 4.82,< 4.82
Cc1ccc(NC(=O)C2c3ccccc3C(=O)N(CC(C)C)C2c2cccs2)nc1 (stereo not drawn),5.88,5.84
Cc1ccc(S(=O)(=O)N(CC(=O)N2CCCCCC2)Cc2ccc(Cl)cc2)cc1,< 4.82,< 4.82
CCC1CCCCN1CCCNC(=O)c1ccc2c(c1)sc1nc(-c3ccc(F)cc3)cn12 (stereo not drawn),6.33,5.89
CCCCCC/N=C1\CC(C)(C)CC(O)=C1C(=O)CCCN1C(=O)c2ccccc2C1=O,< 4.82,< 4.82

# Source: ChEMBL document CHEMBL1154198, “Chemical genetics of Plasmodium falciparum” (Nature, 2010)
